Like-named read-outs stand apart in the source and are kept apart here.
Columns and labels:
[1] = biological target: T1, recombinant human SULT2B1b protein (Homo sapiens, UniProt O00204); assay: SULT assay (in vitro SULT2B1b enzymatic activity measurement); format: biochemical; details: read-out: in vitro SULT2B1b assay % activity at 200 μM
T1 sequence (O00204 1-365): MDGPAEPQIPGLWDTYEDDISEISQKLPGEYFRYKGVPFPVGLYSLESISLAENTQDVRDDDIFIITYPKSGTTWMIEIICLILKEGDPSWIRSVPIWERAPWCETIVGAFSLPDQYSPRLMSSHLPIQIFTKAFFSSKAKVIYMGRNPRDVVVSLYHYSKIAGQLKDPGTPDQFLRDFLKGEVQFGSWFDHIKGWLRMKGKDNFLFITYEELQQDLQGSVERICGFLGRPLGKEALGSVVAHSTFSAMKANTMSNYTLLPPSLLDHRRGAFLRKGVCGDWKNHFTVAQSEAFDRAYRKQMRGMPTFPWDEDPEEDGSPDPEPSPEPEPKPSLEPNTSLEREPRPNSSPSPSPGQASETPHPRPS
Procedure: For screening for a SULT2B1b inhibitor, enzymatic activity measurement for SULT2B1b was carried out by a method described in a previous report (NPL 2) with slight modifications.
The reaction solution (50 μl) was composed of 1 to 5 μg of recombinant human SULT2B1b protein, 10 μM [^3H]cholesterol (approximately 4,000 dpm/pmol), 10 mM Tris-HCl (pH 7.5, containing 5 mM MgCl2) containing 0.1 mM 3′-phosphoadenosine 5′-phosphosulfate (PAPS), 0.2 mM 2-hydroxypropyl-β-cyclodextrin, and 5% (v/v) ethanol. Recombinant human SULT2B1b protein was pre-incubated with 1 μl of a test compound (final concentration: 40 or 200 μM) or DMSO (control) at room temperature for 15 minutes, 2 mM PAPS (2.5 μl) was then added to initiate reaction, the resultant was reacted at 37° C. for 15 minutes, and 0.8 ml of ethanol was added to terminate the reaction.
The solution after the reaction was subjected to thin-layer chromatography (TLC) for separation, and then to a liquid scintillation counter to quantify radiolabeled CS.
From the percentage to the amount ([…]) of radiolabeled CS generated through reaction in the absence of the test compound (DMSO) (control), the SULT2B1b activity (% activity) of SULT2B1b protein in the presence of the test compound was evaluated, and the effect of the test compound to inhibit SULT2B1b-mediated CS production (CS production inhibitory effect) was evaluated.
In enzyme assay, SULT assay was performed with use of cholenoic acid as a compound to be tested at different cholesterol and PAPS concentrations (wherein 0.5 to 1 μg of recombinant human SULT2B1b protein was used, the preincubation time and reaction time were each 10 minutes), and the results were fitted to the Michaelis-Menten equation by using Prism 9 (GraphPad Software, Inc.) to perform enzyme kinetic analysis for the inhibition by cholenoic acid.
SULT assay was performed for the compounds as test compounds by the method described in (14) of “II. Experimental procedure” in Experiment Example 1 to evaluate the SULT2B1b inhibitory effects of the compounds.

[2] = system: SULT2B1b-mediated CS production in E0771-SULT cells; assay: CS production inhibitory effect in E0771-SULT cells (LC/MS/MS quantification of CS); format: cell-based, mouse; details: Mus musculus; for activity at 10 µM: relative to control (100%); for activity at 20 µM: relative to control without compound (100%); for IC50: read-out: IC50 value (CS production); for activity at 1 µM: compound groups B-D
Procedure: CS in each human cancer tissue sample was quantified by a method described in NPL 2. To monitor the amounts of CS and/or oxysterol generated in E0771, 3LL, EG.7-OVA, and MC38 cells irrespective of the presence or absence of SULT2B1b expression, cells of each type were seeded in a 6-well plate at 5×10^5 cells/well, and the culture supernatant and cell pellet were collected after 24 hours. Subsequently, deuterium-labeled internal standard (IS) compounds (d7-CS [[…]] and d6-25-hydroxycholesterol) were added to fractions of the culture supernatant and cell pellet, each of which was subjected to extraction with 1 mL of extraction solvent (methanol/chloroform/water=5:2:2 [v/v/v]) to extract CS and oxysterol from the culture supernatant or cell pellet.
Each sample was vigorously mixed with a vortex for 1 minute, and then ultrasonicated for 5 minutes. Thereafter, the sample was centrifuged at 16,000×g and 4° C. for 5 minutes, and the supernatant (700 μl) was collected in a clean tube. Into this, 235 μl of chloroform and 155 μl of water were added and mixed, and the resultant was then subjected to vortexing followed by centrifugation to separate into an aqueous layer and an organic layer. Subsequently, 200 μl of the lowermost layer was dried under a nitrogen flow.
The dried sample was dissolved in 50 μl of methanol, and CS and oxysterol therein were quantified by liquid chromatography-tandem mass spectrometry (LC/MS/MS) with a triple quadrupole mass spectrometer (LCMS-8060; Shimadzu Corporation) equipped with an electrospray ionization (ESI) ion source in a multiple reaction monitoring (MRM) mode.
• Column: Inertsil ODS-4 (2.1×150 mm; particle size: 3 μm; GL Sciences Inc.) • Column temperature: 40° C. • Flow rate: 0.3 ml/min • Mobile phase: (A) water/acetonitrile (1:2, v/v) containing 5 mM ammonium acetate (B) Methanol/Isopropanol (1:19, v/v) Containing 5 mM Ammonium Acetate • Gradient curve: 0 min→22 min: (B) 0%→100%, • 22 min→27 min: (B) 100%, • 27 min→27.1 min: (B) 100%→0%, • 27.1 min→30 min: (B) 0% • Injection volume: 5 μl • Mass spectrometry mode: positive and negative ion modes • Electrospray voltage: 4 kV in positive ion mode, −3.5 kV in negative ion mode • Nebulizer gas flow rate: 3.0 L/min • Drying gas flow rate: 10.0 L/min • Desolvation temperature: 250° C. • Heat block temperature: 400° C. • Detector voltage: 2.16 kV • Used were MRM mode and 2 msec of dwell time per channel.
Absolute CS and oxysterol contents were calculated from calibration curves. MRM calibration curves were prepared with chromatographic peak areas for the analytes relative to peak areas for internal standards through three times of analysis for standard solutions.
The CS production effects of test compounds (compounds 1 to 19, 21, 23, 25, and 27 to 32) were evaluated with the mouse breast cancer cell line E0771 expressing SULT2B1b (E0771-SULT cells).
Specifically, as in the above description in experimental procedure (12), E0771-SULT cells were seeded in a 6-well plate at a proportion of 5×10^5 cells/well, and cultured in the presence or absence (control) of each test compound for 24 hours. After culturing, CS generated in E0771-SULT cells was quantified by LC/MS/MS according to the description in experimental procedure (12). The CS production capacity (% activity) of cells cultured in the presence of each test compound was evaluated from the percentage relative to the CS production level (control) (100%) in E0771-SULT cells cultured in the absence of the test compound, and the CS production inhibitory effect of the test compound was evaluated.

[3] = 24 h, read-out: CS production % activity at 10 μM, E0771-SULT cells, 24 hours, test compound 10 μM (Table 1)
[4] = 24 h, read-out: CS production % activity at 10 μM, E0771-SULT cells, 24 hours, third concentration column of Table 1, head again printed 10 μM
[5] = 24 h, read-out: CS production % activity at 20 μM, E0771-SULT cells, 24 hours, test compound 20 μM
[6] = 24 h, E0771-SULT cells, 24 hours, test compound 20 μM, read-out: CS production % activity at 20 μM
[7] = test compound 200 μM, relative to DMSO control (100%)
[8] = E0771-SULT cells, 24 hours, test compound 20 μM, read-out: CS production % activity at 20 μM
[9] = E0771-SULT cells, 24 hours, read-out: CS production % activity at 1 μM

`COC(=O)CC[C@@H](C)[C@H]1CC[C@H]2[C@@H]3CC=C4C[C@@H](O)CC[C@]4(C)[C@H]3CC[C@]12C` [Compound 3, methyl (R)-4-((3S,8S,9S,10R,13R,14S,17R)-3-hydroxy-10,13-dimethyl-2,3,4,7,8,9,10,11,12,13,14,15,16,17-tetradecahydro-1H-cyclopenta[a]phenanthren-17-yl)pentanoate] was tested, and the activity at 200 µM [1] was 19%, the activity at 10 µM [2, 3] was 48.1% and the activity at 10 µM [2, 4] was 61.4%. The activity at 20 µM [2, 5] was 56.8% and the IC50 [2] was 17.3 µM.
`COC(=O)CC[C@@H](C)[C@H]1CC[C@H]2[C@@H]3CC=C4C[C@@H](OC(=O)C(F)(F)F)CC[C@]4(C)[C@H]3CC[C@]12C` [Compound 4, methyl (R)-4-((3S,8S,9S,10R,13R,14S,17R)-10,13-dimethyl-3-(2,2,2-trifluoroacetoxy)-2,3,4,7,8,9,10,11,12,13,14,15,16,17-tetradecahydro-1H-cyclopenta[a]phenanthren-17-yl)pentanoate] showed an activity at 200 µM [1] of 13.6%, an activity at 10 µM ([2]; 24 h, E0771-SULT cells, 24 hours, test compound 10 μM (Table 1), read-out: CS production % activity at 10 μM) of 79.2% and an activity at 20 µM [2, 6] of 49.9%. For the same compound, the activity at 10 µM ([2]; 24 h, E0771-SULT cells, 24 hours, third concentration column of Table 1, head again printed 10 μM, read-out: CS production % activity at 10 μM) was 104% and the IC50 ([2]; E0771-SULT cells) was 20 µM.
`CO[C@H]1CC[C@@]2(C)C(=CC[C@H]3[C@@H]4CC[C@H]([C@H](C)CCC(=O)O)[C@@]4(C)CC[C@@H]32)C1` [Compound 6, (R)-4-((3S,8S,9S,10R,13R,14S,17R)-3-methoxy-10,13-dimethyl-2,3,4,7,8,9,10,11,12,13,14,15,16,17-tetradecahydro-1H-cyclopenta[a]phenanthren-17-yl)pentanoic acid] was tested, and the activity at 200 µM [1, 7] was 22.9%, the activity at 10 µM [2, 3] was 74.5% and the activity at 10 µM [2, 4] was 80.7%. It also gave an activity at 20 µM [2, 5] of 70.3% and an IC50 [2] of 32.4 µM.
For `C[C@H](CCC(=O)N(Cc1ccccc1)Cc1ccccc1)[C@H]1CC[C@H]2[C@@H]3CC=C4C[C@@H](OC(=O)C(F)(F)F)CC[C@]4(C)[C@H]3CC[C@]12C` [Compound 7, (3S,8S,9S,10R,13R,14S,17R)-17-((R)-5-(dibenzylamino)-5-oxopentan-2-yl)-10,13-dimethyl-2,3,4,7,8,9,10,11,12,13,14,15,16,17-tetradecahydro-1H-cyclopenta[a]phenanthren-3-yl 2,2,2-trifluoroacetate], the activity at 200 µM [1, 7] was 6.4%, the activity at 10 µM [2, 3] was 59% and the activity at 10 µM [2, 4] was 74.6%. For the same compound, the activity at 20 µM [2, 5] was 57.8% and the IC50 [2] was 17.3 µM.
Work on `CCCCNC(=O)CC[C@@H](C)[C@H]1CC[C@H]2[C@@H]3CC=C4C[C@@H](OC(=O)C(F)(F)F)CC[C@]4(C)[C@H]3CC[C@]12C` [Compound 8, (3S,8S,9S,10R,13R,14S,17R)-17-((R)-5-(butylamino)-5-oxopentan-2-yl)-10,13-dimethyl-2,3,4,7,8,9,10,11,12,13,14,15,16,17-tetradecahydro-1H-cyclopenta[a]phenanthren-3-yl 2,2,2-trifluoroacetate] yielded an activity at 200 µM [1, 7] of 10.7%, an activity at 10 µM [2, 3] of 70.6% and an activity at 10 µM [2, 4] of 83.6%. The activity at 20 µM [2, 5] was 60.2% and the IC50 [2] was 42.5 µM.
`C#C[C@]1(O)CC[C@H]2[C@@H]3CC=C4C[C@@H](O)CC[C@]4(C)[C@H]3CC[C@@]21C` [Compound 29, (3S,8R,9S,10R,13S,14S,17R)-17-ethynyl-10,13-dimethyl-2,3,4,7,8,9,10,11,12,13,14,15,16,17-tetradecahydro-1H-cyclopenta[a]phenanthrene-3,17-diol] showed an activity at 1 µM ([2]; 24 h, read-out: CS production % activity at 1 μM, E0771-SULT cells, 24 hours) of 50.1%, an activity at 20 µM [2, 5] of 45% and an IC50 [2] of 11.8 µM.
For `C#CC1(OC(C)=O)CCC2C3CCC4=CC(=O)CCC4C3CCC21C` (stereo not shown) [Compound 30, 19-norethisterone-acetate, reference compound], the activity at 20 µM [2, 8] was 61.9%, the activity at 1 µM [2, 9] was 80.1% and the IC50 ([2]; E0771-SULT cells) was 34.3 µM.
In the case of `C#CC1(O)CCC2C3CCC4=CC(=O)CCC4C3CCC21C` (stereo not shown) [Compound 31, 19-norethindrone, reference compound], the activity at 20 µM [2, 8] is reported as 77.5%, the activity at 1 µM [2, 9] is reported as 82.8% and the IC50 ([2]; E0771-SULT cells) is reported as 68.4 µM.
Compound `CC1(C2CC[C@H]3[C@@H]4CC=C5C[C@@H](O)CC[C@]5(C)[C@H]4CC[C@]23C)CS1` (stereo partly drawn) [Compound 32, (3S,8S,9S,10R,13S,14S)-10,13-dimethyl-17-(2-methylthiiran-2-yl)-2,3,4,7,8,9,10,11,12,13,14,15,16,17-tetradecahydro-1H-cyclopenta[a]phenanthren-3-ol] has an activity at 20 µM [2, 6] of 54.8%, an activity at 1 µM ([2]; 24 h, E0771-SULT cells, 24 hours, read-out: CS production % activity at 1 μM) of 49.7% and an IC50 ([2]; E0771-SULT cells) of 12.8 µM.
